Laboratory results from article PMC8187357 (Communications Biology, 2021).
Several values for one entry are separate records, joined by “and”; a condition that tells them apart may be missing. Identical values can stand only once. Like-named read-outs stand apart in the source and are kept apart here.

Tests used:
[1] = biological target: PD-L1 (Macaca fascicularis, UniProt G7PSE7); assay: Rescue of IFN-γ release inhibited by PD-L1, monkey PBMC; assay type: cell-based; conditions: n=1
Protocol: The ability of peptides, peptidomimetics, and small molecules were analyzed for their ability to rescue T-cell proliferation or IFN-γ release from the inhibitory activity of PD-L1 or PD-L2 in a splenocyte/PBMC-based functional assay as per the protocols reported in publication. […] For all in vitro assays, test agent stock was prepared in water and diluted further in the assay media to achieve test concentrations. Each experimental condition was carried out in triplicates. Percent rescue for a given test compound concentration was calculated by normalizing individual percent test agent proliferation or IFN-γ release values to percent anti-CD3 and anti-CD28 antibodies stimulated proliferation or IFN-γ release. EC50 values were derived by plotting transformed data into non-linear fit in sigmoidal dose–response curve using GraphPad Prism software (Version 7).

[2] = Pharmacokinetics in mice; assay type: in vivo, mouse
Protocol: Animals in Group 1 were administered with 5% w/v dextrose in water and Group 2 were administered with corresponding formulation listed in the Supplementary Table 6 through oral routes. Blood samples (approximately 40 μl) were collected under light isoflurane anesthesia from submandibular at predose, 0.08 (IV), 0.25, 0.5, 1, 2, 4, 8, and 24 h using sparse sampling technique. Plasma samples were separated by centrifugation of whole blood and stored below −70 °C until bioanalysis. All samples were processed for analysis by protein precipitation and analyzed with fit-for-purpose LC–MS/MS method.

[3] = biological target: T1, PD-1:PD-L1 complex (Homo sapiens, UniProt Q9NZQ7); assay: TR-FRET PD-1:PD-L1 complex formation assay; assay type: binding; conditions: for Percent inhibition: duplicates
T1 construct: purchased Sino Biologicals (PD-L1); R&D system (PD-1 Fc) 10084-H08H; 1086-PD; host or cells: mammalian cells
Protocol: The assay was performed using LANCE Ultra TR-FRET binding assay. To determine the half maximal inhibitory concentration (IC50) of tested compounds, they were solubilized in water and measurements were performed on individual dilution series. His-tagged human recombinant PD-L1 protein (Sino Biologicals, Cat#10084-H08H) at 20 nM final concentration was incubated at 25 °C temperature with indicated concentration of test compound for 15 min in a white Lumitec high-binding, 384-well plate (Grenier, Cat #781074). […] LANCE Eu-anti-human IgG from Perkin Elmer, (Cat# AD0212) at 0.5 nM final concentration and Surelight Allophycocyanin-6-His from Perkin Elmer (Cat# AD0059H) at 20 nM final concentration was added to the wells. […] Collected data was background subtracted on the negative control, normalized, and analyzed using non-linear regression analysis to determine the IC50 value by GraphPad Prism Version 8.

[4] = system: CT26 colon carcinoma model; assay: Immune pharmacodynamics in CT26 colon carcinoma model; assay type: in vivo, mouse; conditions: CT26 tumor infiltrating lymphocytes, CA-170 10 mg/kg daily, PD-1 antibody J43 100 µg/animal, 5 days, individual animals
From the text: For the measurement of immune pharmacodynamics, CT26 cells were subcutaneously implanted into 5 to 7 weeks old male Balb/c mice by injecting 1 million CT26 tumor cells/ animal. When tumor volume reached ~200mm^3, animals were randomized and allocated to three treatment groups (n = 5). Similarly, for the measurement of immune pharmacodynamics in MC38 model, MC38 cell lines were subcutaneously implanted into 5 to 7 weeks old male C57B6 mice by injecting 0.5 million cells/animal. Dosing was initiated when tumor volume reached ~100 mm^3. In both tumor models, mice were orally treated daily with vehicle and CA-170 (10 mg/kg) for 5 days. As an additional control, anti-PD1 antibody (100 μg/animal, clone J43) was dosed intraperitoneally on day 1. After 24 h of last dosing, animals were sacrificed, and blood samples and tumor tissues were collected from each animal and processed for PD evaluation using antibodies shown in Supplementary Table 1 and specific methods reported in publication[51] and analyzed by FACS. The gating strategy is detailed in Supplementary Fig. 3.

[5] = system: B16F10 melanoma; assay: B16F10 melanoma lung metastasis model; assay type: in vivo, mouse; conditions: 10 mg/kg/day orally for 14 days
Protocol: Studies in syngeneic models including B16 melanoma metastasis model and CT26 colon carcinoma subcutaneous model were performed as described. For the Docetaxel combination experiment in CT26 model, indicated dosage of docetaxel (Source: Docetere® injection by Dr Reddy’s Laboratories) was dosed intraperitoneally to animals. For the CA-170 combination groups, CA-170 (10 mg/kg/day, oral) was dosed ~10 min after docetaxel. Animal grouping, treatment efficacy assessment and %TGI calculations were performed as mentioned above. For the CT26 experiment with cyclophosphamide, 100 mg/kg of cyclophosphamide was dosed once on day 5 intraperitoneally after cell implantation (first day of dosing for all other groups). Anti-PD1 antibody (Clone J43 from BioXcel) was dosed intraperitoneally at 100 µg/animal once every week.

[6] = system: Cl-Channel; assay: CEREP 80 panel binding: Cl-Channel; conditions: 10 µM
Protocol: (§1) CEREP 80 panel assay was carried out by Eurofins Cerep Panlabs facility at France. A series of binding assays was carried out to understand the off-target toxicity of CA-170. CA-170 was tested at 10 μM test concentration in duplicates. Compound binding was calculated as a % inhibition of the binding of a radioactively labeled ligand specific for each target. In each experiment the respective reference compound was tested concurrently with CA-170, and the data were compared with historical values determined at Eurofins. The experiment was accepted in accordance with Eurofins validation standard operating procedure. The results are expressed as a percent of control specific binding; (measured specific binding / control specific binding) × 100 and as a percent inhibition of control specific binding; 100−(measured specific binding / control specific binding) × 100 obtained in the presence of CA-170. The IC50 values (concentration causing a half-maximal inhibition of control specific binding) and Hill coefficients (nH) were determined by non-linear regression analysis of the competition curves generated with mean replicate values using Hill equation curve fitting.

[7] = system: Histamine H1,H2; assay: CEREP 80 panel binding: Histamine; conditions: 10 µM
Protocol: as §1

[8] = system: NeuropeptideY Y1,Y2; assay: CEREP 80 panel binding: NeuropeptideY; conditions: 10 µM
Protocol: as §1

[9] = system: DOP, KOP, MOP, NOP; assay: CEREP 80 panel binding: Opioid & Opioid like; conditions: 10 µM
Protocol: as §1

[10] = system: Ion Channels Ca2+, Kv, Skca, Na2+; assay: CEREP 80 panel binding: Ion Channels; conditions: 10 µM
Protocol: as §1

T1 sequence (Q9NZQ7 19-239 limits assumed, one chain of several): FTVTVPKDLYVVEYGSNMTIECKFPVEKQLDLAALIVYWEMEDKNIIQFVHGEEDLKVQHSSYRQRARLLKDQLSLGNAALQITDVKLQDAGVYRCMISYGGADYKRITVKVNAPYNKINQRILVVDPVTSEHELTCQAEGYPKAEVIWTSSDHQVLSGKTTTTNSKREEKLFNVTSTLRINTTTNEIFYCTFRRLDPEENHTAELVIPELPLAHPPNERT
Sequence of PD-L1 (G7PSE7 19-239): as the sequence (Q9NZQ7 19-239 limits assumed, one chain of several) above, with A33T, A34S, S62N, R68Q, Q82R, F173L, T185A, T192I, H215L counted along it

## C[C@@H](O)[C@H](NC(=O)N[C@@H](CC(N)=O)c1nc([C@@H](N)CO)no1)C(=O)O [CA-170]
[1]
  EC50: 97.8 nM
[2]; male, CD-1, mouse, plasma, mice, intravenous 1 mg kg−1, read-out: Mice PK parameters AUCi iv(0-α)
  AUC: 4200 ng·h/mL
[2]; male, CD-1, mouse, plasma, mice, intravenous 1 mg kg−1, read-out: Mice PK parameters Clearance (converted)
  clearance: 12.1 mL/min/kg
[2]; male, CD-1, mouse, plasma, mice, iv 1 mg kg−1, oral 30 mg kg−1, read-out: Mice PK parameters % F
  bioavailability: 50%
[2]; male, CD-1, mouse, plasma, mice, oral 30 mg kg−1, read-out: Mice PK parameters AUC po (0-α)
  AUC: 19600 ng·h/mL
[2]; male, CD-1, mouse, plasma, mice, oral 30 mg kg−1, read-out: Mice PK parameters Cmax
  Cmax: 1720 ng/mL
[2]; male, CD-1, mouse, plasma, preclinical PK exposure
  half-life: 3.4 h
[2]; mouse, in vivo, po
  oral bioavailability (in words): good oral bioavailability
[3]; 1e-7 M
  Percent inhibition: 6.182% and -0.9776%
[3]; 1e-6 M
  Percent inhibition: -12.4686% and -2.961%
[3]; 1e-5 M
  Percent inhibition: -7.3407% and -7.039%
[3]; 0.0001 M
  Percent inhibition: -7.475% and -8.751%
[3]; tested up to 100 μM
  prevention of PD-1:PD-L1 complex formation (in words): did not lead to prevention of complex formation
[4]
  Ki-67+ cells % Live, CD45+, CD3+, CD4+ T cells: 57.1% and 63.22% and 64.66% and 82.55% and 45.02%
  Ki-67+ cells % Live, CD45+, CD3+, CD8+ T cells: 71.24% and 82.88% and 69.7% and 88.94% and 68.84%
  OX-40+ cells % Live, CD45+, CD3+, CD4+ T cells: 56.66% and 56.78% and 46.34% and 42.73% and 29.6%
  OX-40+ cells % Live, CD45+, CD3+, CD8+ T cells: 87.3% and 96.29% and 95.65% and 95.1% and 35.3%
[5]; B16F10, vs vehicle control
  reduction in metastatic nodules: 73%
[5]; B16F10 iv in C57B6 mice, 10 mg/kg/day
  Individual Metastatic nodules on lungs: 3 and 23 and 2 and 13 and 0 and 8 and 1 and 10 and 14
[6]
  % Inhibition of Control Specific Binding: 2%
[7]
  % Inhibition of Control Specific Binding: < 0%
[8]
  % Inhibition of Control Specific Binding: ≤ 78%
[9]
  % Inhibition of Control Specific Binding: ≤ 9%
[10]
  % Inhibition of Control Specific Binding: 1%
